Laboratory results as given in patent US20080248134A1, “Oral compositions, use and combinations of N-[2-(dimethylamino)ethyl]-2,6 dimethyl-1-oxo-1,2-dihydrobenzo[b]-1,6-naphthyridine-4-carboxamide and closely related analogues thereof” (Auckland Uniservices Limited, priority 2005, published 2008).
pIC50: −log10 of the molar value. Entries after “also recorded” stand apart in the source; their conditions may differ.

Key:
wild-type Jurkat line = test: In vitro cell survival assay; format: cell-based, human; settings: 0.4 μM, one hour exposure
Experimental: (§1) Two HCT116 human colon carcinoma lines, one with TP53 wild type status and one with TP53 mutant status, were exposed to the compound of Formula II for 6 hours. The cells were washed free of drug and surviving cells were measured by clonogenic assay. The concentration for maximal reduction of cell survival was 1% for p53 wild-type cells and 5% for p53 mutant cells. The cytotoxicity of the compound of the present invention was also tested in three Jurkat leukaemia lines, two of which, JLA and JLD, are resistant to topoisomerase inhibitors because of low cellular levels of topoisomerase II.

JLA = test: In vitro cell survival assay; format: cell-based, human; settings: resistant line JLA, 0.4 μM, one hour exposure
Experimental: as §1

JLD = test: In vitro cell survival assay; format: cell-based, human; settings: resistant line JLD, 0.4 μM, one hour exposure
Experimental: as §1

Lewis lung = test: Murine Lewis lung tumour growth delay; format: in vivo; settings: intraperitoneal dose of 8.9 mg/kg
Experimental: In addition, the compound of Formula II, by way of an intraperitoneal dose of 8.9 mg/kg, induced a growth delay of 8.5 days in a murine tumour (Lewis lung) that is also used extensively in drug development programmes.

colon 38 tumours = test: Murine colon 38 tumour response; format: in vivo; settings: single oral dose (8.9 mg/kg)
From the text: The murine colon-38 carcinoma is a transplantable tumour that has been used extensively in drug development programmes to determine the activity of many different drugs (Goldin A et al. Current results of the screening program at the Division of Cancer Treatment, National Cancer Institute. European Journal of Cancer. 1981. 17(2):129-142). The tumour is implanted subcutaneously as 1-mm^3 fragments and allowed to grow (8 days) to a tumour of approximately 3 mm in diameter before administration of test drugs.

HCT116 = test: Human tumour xenograft; format: in vivo; parameters: key to Activity: Active: NCI Criterion for activity tumour volume T/C ≦ 40%; Inactive: NCI Criterion for activity tumour volume T/C ≦ 40%; settings: HCT116, Colon
Experimental: (§2) The compound of Formula II was evaluated in a number of xenografts using cell lines derived from cervical, endometrial, lung and colon carcinomas, leukaemia and melanoma (Table 3). These studies indicate that the compound according to the present invention has significant activity in xenografts.

H460 = test: Human tumour xenograft; format: in vivo; parameters: key to Activity: Active: NCI Criterion for activity tumour volume T/C ≦ 40%; Inactive: NCI Criterion for activity tumour volume T/C ≦ 40%; settings: H460, Lung
Experimental: as §2

NZM10 = test: Human tumour xenograft; format: in vivo; parameters: key to Activity: Active: NCI Criterion for activity tumour volume T/C ≦ 40%; Inactive: NCI Criterion for activity tumour volume T/C ≦ 40%; settings: NZM10, Melanoma
Experimental: as §2

NZMp1 = test: Human tumour xenograft; format: in vivo; parameters: key to Activity: Active: NCI Criterion for activity tumour volume T/C ≦ 40%; Inactive: NCI Criterion for activity tumour volume T/C ≦ 40%; settings: NZMp1, Melanoma
Experimental: as §2

NZC1 = test: Human tumour xenograft; format: in vivo; parameters: key to Activity: Active: NCI Criterion for activity tumour volume T/C ≦ 40%; Inactive: NCI Criterion for activity tumour volume T/C ≦ 40%; settings: NZC1, Cervix
Experimental: as §2

NZM4 = test: Human tumour xenograft; format: in vivo; parameters: key to Activity: Active: NCI Criterion for activity tumour volume T/C ≦ 40%; Inactive: NCI Criterion for activity tumour volume T/C ≦ 40%; settings: NZM4, Melanoma
Experimental: as §2

NZMp2 = test: Human tumour xenograft; format: in vivo; parameters: key to Activity: Active: NCI Criterion for activity tumour volume T/C ≦ 40%; Inactive: NCI Criterion for activity tumour volume T/C ≦ 40%; settings: NZMp2, Melanoma
Experimental: as §2

NZM3 = test: Human tumour xenograft; format: in vivo; parameters: key to Activity: Active: NCI Criterion for activity tumour volume T/C ≦ 40%; Inactive: NCI Criterion for activity tumour volume T/C ≦ 40%; settings: NZM3, Melanoma
Experimental: as §2

NZEN1 = test: Human tumour xenograft; format: in vivo; parameters: key to Activity: Active: NCI Criterion for activity tumour volume T/C ≦ 40%; Inactive: NCI Criterion for activity tumour volume T/C ≦ 40%; settings: NZEN1, Endometrium
Experimental: as §2

Jurkat LA = test: Human tumour xenograft; format: in vivo; parameters: key to Activity: Active: NCI Criterion for activity tumour volume T/C ≦ 40%; Inactive: NCI Criterion for activity tumour volume T/C ≦ 40%; settings: Leukaemia
Experimental: as §2

AuxB1 = test: In vitro susceptibility to multidrug resistance, continuous exposure IC50; format: cell-based, Chinese Hamster; settings: Cricetulus griseus, AuxB1 (no multidrug resistance)
Experimental: (§3) Multidrug resistance mediated by p-glycoprotein and related transport proteins is an important means by which cancer cells evade cytotoxic drugs. […] IC50 values of several drugs were measured in continuous exposure assays in these two cell lines. The resistance factor was calculated as the ratio of these values. High values indicate high susceptibility to resistance.

CHrC5 = test: as above; format: cell-based, Chinese Hamster
Experimental: as §3

[1] = system: p53, p21 and Fas in HCT116 (TP53 wild type); test: Induction of the p53 pathway, western blotting; format: cell-based, human
From the text: The p53 protein is thought to play a major role in the induction of apoptosis in tumour cells (Levine A J. p53, the cellular gatekeeper for growth and division. Cell. 1997. 88(3):323-331). The p53 protein is a transcriptional activator, which acts in response to DNA damage and other stress pathways, and increases expression of proteins such as Fas and p21^WAF1. […] Products were detected by western blotting.

[2] = P53 not known, tumour volume T/C

`Cc1cccc2cc3c(=O)n(C)cc(C(=O)NCCN(C)C)c3nc12` [Formula II, N-[2-(dimethylamino)ethyl]-2,6 dimethyl-1-oxo-1,2-dihydrobenzo[b]-1,6-naphthyridine-4-carboxamide] was tested, and the survival (wild-type Jurkat line) was 28%, the survival (JLA) was 100% and the survival (JLD) was 100%. The growth delay (Lewis lung) was 8.5 days, the “response of colon 38 tumours” value (colon 38 tumours) was “complete regression; also recorded: single dose cures” and the Activity (HCT116) was “Inactive”. The “% control” value (HCT116; P53 W.T., tumour volume T/C) was 70%, the Activity (H460) was “Active” and the “% control” value (H460; P53 W.T., tumour volume T/C) was 38%. For the same compound, the Activity (NZM10) was “Active”, the “% control” value (NZM10; P53 W.T., tumour volume T/C) was 30% and the Activity (NZMp1) was “Active”. For the same compound, the “% control” value (NZMp1; [2]) was under 10%, the Activity (NZC1) was “Active” and the “% control” value (NZC1; [2]) was 38%. The Activity (NZM4) was “Inactive”, the “% control” value (NZM4; P53 Mutant, tumour volume T/C) was 90% and the Activity (NZMp2) was “Active”. The “% control” value (NZMp2; tumour volume T/C) was 22%, the Activity (NZM3) was “Active” and the “% control” value (NZM3; P53 W.T., tumour volume T/C) was 38%. For the same compound, the Activity (NZEN1) was “Inactive”, the “% control” value (NZEN1; [2]) was 50% and the Activity (Jurkat LA) was “Active”. For the same compound, the “% control” value (Jurkat LA; P53 Null, tumour volume T/C) was 28%, the pIC50 (AuxB1) was 8.46 and the pIC50 (CHrC5; Cricetulus griseus, CHrC5 (multidrug resistant), continuous exposure) was 8.28. The Resistance factor (CHrC5; ratio of IC50 values in CHrC5 and AuxB1) was 1.5, the “induction of p53, p21 and Fas” value ([1]; 24 hours at higher cell density (approaching confluence)) was “induced these proteins” and the “induction of p53, p21 and Fas” value ([1]; 24 hours exposure) was “much greater response”. For the same compound, the “induction of p53, p21 and Fas” value ([1]; earlier times (4-10 hours)) was “induced these proteins”.
